| melting point | SMILES |
| --- | --- |
| 164 to 167 °C | Oc1ccc2c(c1)OC[C@@H](c1ccc(F)cc1)[C@H]2c1ccc(OCCN2CCCC2)cc1 (racemic) [Example 7, (±)-cis-7-Hydroxy-3-(4-fluorophenyl)-4-(4-(2-pyrrolidinoethoxy)phenyl)chromane] |
| 146 to 147 °C | Oc1ccc2c(c1)OC[C@@H](c1ccc(F)cc1)[C@H]2c1ccc(OCCN2CCCCC2)cc1 (racemic) [Example 8, (±)-cis-7-Hydroxy-3-(4-fluorophenyl)-4-(4-(2-piperidinoethoxy)phenyl)-chromane] |
| 78 to 84 °C | Oc1ccc2c(c1)OC[C@@H](c1ccc(F)cc1)[C@H]2c1ccc(OCCCN2CCCCC2)cc1 (racemic) [Example 9, (±)-cis-7-Hydroxy-3-(4-fluorophenyl)-4-(4-(3-piperidinopropoxy)phenyl)chromane] |
| 112 to 116 °C | Oc1ccc([C@@H]2COc3cc(O)ccc3[C@@H]2c2ccc(OCCN3CCCC3)cc2)cc1 (racemic) [Example 10, (±)-cis-7-Hydroxy-3-(4-hydroxyphenyl)-4-(4-(2-pyrrolidinoethoxy)phenyl)chromane] |
| 161 to 165 °C | Cc1ccc([C@@H]2COc3cc(O)ccc3[C@@H]2c2ccc(OCCN3CCCC3)cc2)cc1 (racemic) [Example 12, (±)-cis-7-Hydroxy-3-(4-methylphenyl)-4-(4-(2-pyrrolidinoethoxy)phenyl)chromane] |
| 146 to 147.5 °C | Cc1ccc([C@@H]2COc3cc(O)ccc3[C@@H]2c2ccc(OCCN3CCCCC3)cc2)cc1 (racemic) [Example 13, (±)-cis-7-Hydroxy-3-(4-methylphenyl)-4-(4-(2-piperidinoethoxy)phenyl)chromane] |
| 85 to 90 °C | Cc1cccc([C@@H]2COc3cc(O)ccc3[C@@H]2c2ccc(OCCN3CCCC3)cc2)c1 (racemic) [Example 16, (±)-cis-7-Hydroxy-3-(3-methylphenyl)-4-(4-(2-pyrrolidinoethoxy)phenyl)chromane] |
| 146 to 150 °C | Oc1ccc2c(c1)OC[C@@H](c1cccc(F)c1)[C@H]2c1ccc(OCCN2CCCC2)cc1 (racemic) [Example 17, (±)-cis-3-(3-Fluorophenyl)-7-hydroxy-4-(4-(2-pyrrolidinoethoxy)phenyl)chromane] |
| 144 °C (dec.) | Oc1cccc([C@@H]2COc3cc(O)ccc3[C@@H]2c2ccc(OCCN3CCCCC3)cc2)c1 (racemic) [Example 19, (±)-cis-7-Hydroxy-3-(3-hydroxyphenyl)-4-(4-(2-piperidinoethoxy)phenyl)chromane] |
| 87 to 89 °C | Oc1ccc2c(c1)OC[C@@H](c1cccc(C(F)(F)F)c1)[C@H]2c1ccc(OCCN2CCCC2)cc1 (racemic) [Example 21, (±)-cis-7-Hydroxy-4-(4-(2-pyrrolidinoethoxy)phenyl)-3-(3-(trifluoromethyl)phenyl)-chromane] |
| 118 to 119 °C | Oc1ccc2c(c1)OC[C@@H](c1cccc(C(F)(F)F)c1)[C@H]2c1ccc(OCCN2CCCCC2)cc1 (racemic) [Example 22, (±)-cis-7-Hydroxy-4-(4-(2-piperidinoethoxy)phenyl)-3-(3-(trifluoromethyl)phenyl)-chromane] |
| 190 °C (dec.) | Oc1ccc2c(c1)OC[C@@H](c1ccccc1F)[C@H]2c1ccc(OCCN2CCCC2)cc1 (racemic) [Example 23, (±)-cis-3-(2-Fluorophenyl)-7-hydroxy-4-(4-(2-pyrrolidinoethoxy)phenyl)chromane] |
| 125 °C (dec.) | Oc1ccc2c(c1)OC[C@@H](c1c(F)c(F)c(F)c(F)c1F)[C@H]2c1ccc(OCCN2CCCC2)cc1 (racemic) [Example 24, (±)-cis-7-Hydroxy-3-(2,3,4,5,6-pentafluorophenyl)-4-(4-(2-pyrrolidinoethoxy)phenyl)chromane] |
| 174 °C (dec.) | Oc1ccc2c(c1)OC[C@@H](c1c(F)c(F)c(F)c(F)c1F)[C@H]2c1ccc(OCCN2CCCCC2)cc1 (racemic) [Example 25, (±)-cis-7-Hydroxy-3-(2,3,4,5,6-pentafluorophenyl)-4-(4-(2-piperidinoethoxy)phenyl)chromane] |
| 100 °C (dec.) | Oc1ccc2c(c1)OC[C@@H](c1ccc(C(F)(F)F)cc1)[C@H]2c1ccc(OCCN2CCCC2)cc1 [Example 1, (+)-cis-7-Hydroxy-4-(4-(2-pyrrolidinoethoxy)phenyl)-3-(4-(trifluoromethyl)phenyl)-chromane] |
